Laboratory results from article PMC3700073, “Synthesis and Biological Activity of New Thiopyrano[2,3-d]thiazoles Containing a Naphthoquinone Moiety” (Scientia Pharmaceutica, 2013).

Experiments:
60 cancer cell lines = assay: NCI single-concentration screen, 60 cancer cell lines; type: cell-based, human; conditions: single concentration 10^−5 M
SK-MEL-5 (melanoma) [1] = assay: NCI single-concentration screen; type: cell-based, human; conditions: 10^−5 M
M14 (melanoma) [2] = assay: NCI single-concentration screen; type: cell-based, human; conditions: 10^−5 M
MALME-3M (melanoma) = assay: NCI single-concentration screen; type: cell-based, human; conditions: 10^−5 M
HL-60(TB) (leukemia) = assay: NCI five-dose assay; type: cell-based; conditions: Homo sapiens, HL-60, HL-60(TB)
MOLT-4 (leukemia) = assay: NCI five-dose assay; type: cell-based; conditions: Homo sapiens, MOLT-4, MOLT-4, leukemia
SR (leukemia) = assay: NCI five-dose assay; type: cell-based; conditions: Homo sapiens
EKVX (NSCL cancer) = assay: NCI five-dose assay; type: cell-based; conditions: Homo sapiens
M14 (melanoma) [3] = assay: NCI five-dose assay; type: cell-based; conditions: Homo sapiens
SK-MEL-2 (melanoma) = assay: NCI five-dose assay; type: cell-based; conditions: Homo sapiens, SK-MEL-2, SK-MEL-2, melanoma
SK-MEL-28 (melanoma) = assay: NCI five-dose assay; type: cell-based; conditions: Homo sapiens, SK-MEL-28, SK-MEL-28, melanoma
SK-MEL-5 (melanoma) [4] = assay: NCI five-dose assay; type: cell-based, human; conditions: for GI50: Homo sapiens, SK-MEL-5, SK-MEL-5, melanoma; for TGI of the most sensitive cell line: SK-MEL-5 /melanoma/
UACC-257 (melanoma) = assay: NCI five-dose assay; type: cell-based, human; conditions: for GI50: Homo sapiens, UACC-257, UACC-257, melanoma
UACC-62 (melanoma) = assay: NCI five-dose assay; type: cell-based; conditions: Homo sapiens, UACC-62, UACC-62, melanoma
MCF-7 (breast cancer) = assay: NCI five-dose assay; type: cell-based; conditions: Homo sapiens, MCF7, MCF-7, breast cancer
HS 578T (breast cancer) = assay: NCI five-dose assay; type: cell-based, human; conditions: for GI50: Homo sapiens, Hs-578T, HS 578T, breast cancer
[5] = test system: MDA-MB-435 (breast cancer); assay: NCI five-dose assay; type: cell-based; conditions: Homo sapiens, MDA-MB-435, MDA-MB-435, breast cancer
T-47D (breast cancer) = assay: NCI five-dose assay; type: cell-based; conditions: Homo sapiens, T47D
[6] = test system: MDA-MB-231/ATCC (breast cancer); assay: NCI five-dose assay; type: cell-based; conditions: Homo sapiens, MDA-MB-231, MDA-MB-231/ATCC
U251 (CNS cancer) = assay: NCI five-dose assay; type: cell-based; conditions: Homo sapiens, U-251, U251, CNS cancer
OVCAR-3 (ovarian cancer) = assay: NCI five-dose assay; type: cell-based; conditions: Homo sapiens, OVCAR-3, OVCAR-3, ovarian cancer
ACHN (renal cancer) = assay: NCI five-dose assay; type: cell-based; conditions: Homo sapiens
CAKI-1 (renal cancer) = assay: NCI five-dose assay; type: cell-based; conditions: Homo sapiens, CAKI-1, CAKI-1, renal cancer
RXF-393 (renal cancer) = assay: NCI five-dose assay; type: cell-based; conditions: Homo sapiens
SN12C (renal cancer) = assay: NCI five-dose assay; type: cell-based; conditions: Homo sapiens
UO-31 (renal cancer) = assay: NCI five-dose assay; type: cell-based; conditions: Homo sapiens, UO-31, UO-31, renal cancer
[7] = test system: Mycobacterium tuberculosis H37Rv strain (ATCC 27294); assay: Antimycobacterial pre-screening at 6.25 μg/mL (BACTEC 460 radiometric system); type: cell-based; conditions: M. tuberculosis H37Rv; for inhibition at 6.25 µg/mL: 6.25 μg/mL; for MIC90: pre-screening, read-out: Estimation of MIC90
male mice = assay: Acute toxicity in vivo, median lethal dose; conditions: intraperitoneal, approximate LD50 (Litchfield and Wilcoxon)
Description: The synthesized compounds were evaluated for their approximate LD50 in male mice. The mice were kept under a constant temperature and humidity in sterile cages with water and food. The stock solutions of the compounds used in this study were prepared immediately before usage and injected intraperitoneally (ip). The LD50 values (Tab. 3) were calculated using the method described by Litchfield and Wilcoxon.
The median lethal dose (LD50), the dose of the selected compounds that causes 50% mortality in mice, was determined from dose–response curves with at least four doses by the method of Litchfield and Wilcoxon.

(melanoma) = assay: NCI single-concentration screen; type: cell-based, human; conditions: SK-MEL-25 (melanoma), 10^−5 M
SF-295 (CNS cancer) = assay: NCI single-concentration screen; type: cell-based, human; conditions: 10^−5 M
[8] = test system: MDA-MB-435 (breast cancer); assay: NCI single-concentration screen; type: cell-based, human; conditions: 10^−5 M
[9] = test system: MDA-MB-468 (breast cancer); assay: NCI five-dose assay; type: cell-based; conditions: Homo sapiens, repeated testing
HCC-2998 (colon cancer) = assay: NCI five-dose assay; type: cell-based; conditions: Homo sapiens, HCC 2998, HCC-2998, colon cancer

SMILES: COc1ccc(C2C3=C(Sc4[nH]c(=O)sc42)C(=O)c2ccccc2C3=O)cc1OC (stereo not drawn) [Compound 4f, 11-(3,4-Dimethoxyphenyl)-3,11-dihydro-2H-benzo[6,7]thiochromeno[2,3-d][1,3]thiazole-2,5,10-trione]
- Mean growth % (60 cancer cell lines): 1.77%
- Growth % of the most sensitive cell line (SK-MEL-5 (melanoma) [1]): −96.40%
- Growth % of the most sensitive cell line (M14 (melanoma) [2]): −80.36%
- Growth % of the most sensitive cell line (MALME-3M (melanoma)): −66.70%
- GI50 (HL-60(TB) (leukemia)): 1.98 µM
- GI50 (MOLT-4 (leukemia)): 3.88 µM
- GI50 (SR (leukemia)): 3.96 µM
- GI50 (EKVX (NSCL cancer)): 4.97 µM
- GI50 (M14 (melanoma) [3]): 2.67 µM
- GI50 (SK-MEL-2 (melanoma)): 4.19 µM
- GI50 (SK-MEL-28 (melanoma)): 6.22 µM
- GI50 (SK-MEL-5 (melanoma) [4]): 1.52 µM
- TGI of the most sensitive cell line (SK-MEL-5 (melanoma) [4]): 1.52 / 2.85 μM
- GI50 (UACC-257 (melanoma)): 6.13 µM
- GI50 (UACC-62 (melanoma)): 2.21 µM
- GI50 (MCF-7 (breast cancer)): 2.25 µM
- GI50 (HS 578T (breast cancer)): 3.71 µM
- GI50 [5]: 2.19 µM
- GI50 (T-47D (breast cancer)): 3.42 µM
- GI50 [6]: 3.13 µM
- GI50 (U251 (CNS cancer)): 4.27 µM
- GI50 (OVCAR-3 (ovarian cancer)): 3.01 µM
- GI50 (ACHN (renal cancer)): 9.24 µM
- GI50 (CAKI-1 (renal cancer)): 11.2 µM
- GI50 (RXF-393 (renal cancer)): 2.27 µM
- GI50 (SN12C (renal cancer)): 3.68 µM
- GI50 (UO-31 (renal cancer)): 10.8 µM
- inhibition at 6.25 µg/mL [7]: 0%
- MIC90 [7]: > 6.25 µg/mL
- LD50ip (male mice): 410 mg/kg

SMILES: COc1cc(C2C3=C(Sc4[nH]c(=O)sc42)C(=O)c2ccccc2C3=O)ccc1O (stereo not drawn) [Compound 4i, 11-(4-Hydroxy-3-methoxyphenyl)-3,11-dihydro-2H-benzo[6,7]thiochromeno[2,3-d]-[1,3]thiazole-2,5,10-trione]
- Mean growth % (60 cancer cell lines): 17.75%
- Growth % of the most sensitive cell line ((melanoma)): −74.12%
- Growth % of the most sensitive cell line (SF-295 (CNS cancer)): −50.25%
- Growth % of the most sensitive cell line [8]: −48.22%
- GI50 (HL-60(TB) (leukemia)): 2.01 µM
- GI50 (HL-60(TB) (leukemia); repeated testing): 1.26 µM
- GI50 (MOLT-4 (leukemia)): 2.77 µM
- GI50 (MOLT-4 (leukemia); repeated testing): 3.67 µM
- GI50 (SR (leukemia)): 41.4 µM
- GI50 (SR (leukemia); repeated testing): 1.96 µM
- GI50 (EKVX (NSCL cancer)): 3.24 µM
- GI50 (EKVX (NSCL cancer); repeated testing): 4.03 µM
- GI50 (M14 (melanoma) [3]): 1.25 µM
- GI50 (M14 (melanoma) [3]; repeated testing): 1.22 µM
- GI50 (SK-MEL-2 (melanoma)): 2.21 µM
- GI50 (SK-MEL-2 (melanoma); repeated testing): 0.98 µM
- GI50 (SK-MEL-28 (melanoma)): 1.79 µM
- GI50 (SK-MEL-28 (melanoma); repeated testing): 1.41 µM
- GI50 (SK-MEL-5 (melanoma) [4]): 0.96 µM
- GI50 (SK-MEL-5 (melanoma) [4]; repeated testing): 0.48 µM
- GI50 (UACC-257 (melanoma)): 1.31 µM
- GI50 (UACC-257 (melanoma); repeated testing): 0.22 µM
- TGI of the most sensitive cell line (UACC-257 (melanoma); UACC-257 /melanoma/, repeated testing): (0.22 / 1.82) μM
- GI50 (UACC-62 (melanoma)): 0.43 µM
- GI50 (UACC-62 (melanoma); repeated testing): 1.59 µM
- GI50 (MCF-7 (breast cancer)): 1.07 µM
- GI50 (MCF-7 (breast cancer); repeated testing): 2.26 µM
- TGI of the most sensitive cell line (HS 578T (breast cancer); HS 578T /breast cancer/): 0.27 / 1.09 μM
- GI50 (HS 578T (breast cancer)): 0.27 µM
- GI50 (HS 578T (breast cancer); repeated testing): 0.65 µM
- GI50 [5]: 1.38 µM
- GI50 ([5]; repeated testing): 1.48 µM
- GI50 (T-47D (breast cancer)): 2.56 µM
- GI50 [9]: 1.75 µM
- GI50 [6]: 0.86 µM
- GI50 ([6]; repeated testing): 1.98 µM
- GI50 (U251 (CNS cancer)): 1.63 µM
- GI50 (U251 (CNS cancer); repeated testing): 2.21 µM
- GI50 (OVCAR-3 (ovarian cancer)): 1.03 µM
- GI50 (OVCAR-3 (ovarian cancer); repeated testing): 0.57 µM
- GI50 (ACHN (renal cancer)): 2.95 µM
- GI50 (ACHN (renal cancer); repeated testing): 1.66 µM
- GI50 (CAKI-1 (renal cancer)): 1.5 µM
- GI50 (CAKI-1 (renal cancer); repeated testing): 2.92 µM
- GI50 (RXF-393 (renal cancer)): 2.52 µM
- GI50 (SN12C (renal cancer); repeated testing): 3.02 µM
- GI50 (UO-31 (renal cancer)): 3.33 µM
- GI50 (UO-31 (renal cancer); repeated testing): 0.57 µM
- GI50 (HCC-2998 (colon cancer)): 3.77 µM
- GI50 (HCC-2998 (colon cancer); repeated testing): 3.24 µM
- LD50ip (male mice): 280 mg/kg

SMILES: COc1cc(C2C3=C(Sc4[nH]c(=O)sc42)C(=O)c2ccccc2C3=O)ccc1OCc1ccccc1 (stereo not drawn) [Compound 4e, 11-[4-(Benzyloxy)-3-methoxyphenyl]-3,11-dihydro-2H-benzo[6,7]thiochromeno[2,3-d]-[1,3]thiazole-2,5,10-trione]
- GI50 (HL-60(TB) (leukemia)): 15.2 µM
- GI50 (MOLT-4 (leukemia)): 17.3 µM
- GI50 (SR (leukemia)): 13.8 µM
- GI50 (EKVX (NSCL cancer)): 16.3 µM
- GI50 (M14 (melanoma) [3]): 6.9 µM
- GI50 (SK-MEL-2 (melanoma)): 20.3 µM
- GI50 (SK-MEL-28 (melanoma)): 12.2 µM
- GI50 (SK-MEL-5 (melanoma) [4]): 2.62 µM
- TGI of the most sensitive cell line (SK-MEL-5 (melanoma) [4]): 2.62 / 6.90 μM
- GI50 (UACC-257 (melanoma)): 11.3 µM
- GI50 (UACC-62 (melanoma)): 12.5 µM
- GI50 (MCF-7 (breast cancer)): 12.9 µM
- GI50 (HS 578T (breast cancer)): 4.52 µM
- GI50 [5]: 12 µM
- GI50 (T-47D (breast cancer)): 16.1 µM
- GI50 [6]: 7.81 µM
- GI50 (U251 (CNS cancer)): 15.1 µM
- GI50 (OVCAR-3 (ovarian cancer)): 11.2 µM
- GI50 (ACHN (renal cancer)): 17.8 µM
- GI50 (CAKI-1 (renal cancer)): 17.4 µM
- GI50 (RXF-393 (renal cancer)): 6.98 µM
- GI50 (SN12C (renal cancer)): 15.3 µM
- GI50 (UO-31 (renal cancer)): 5.62 µM
- GI50 (HCC-2998 (colon cancer)): 16.6 µM
- inhibition at 6.25 µg/mL [7]: 15%
- MIC90 [7]: > 6.25 µg/mL
- LD50ip (male mice): >1000 mg/kg
